Test results: ChEMBL document CHEMBL1152207, “Leucettamol A: a new inhibitor of Ubc13-Uev1A interaction isolated from a marine sponge, Leucetta aff. microrhaphis” (Bioorg Med Chem Lett, 2008)
Activity calls are given as the source filed them. The rule behind the calls is not given here.

Legend:
[1] = molecular target: Ubiquitin-conjugating enzyme E2 N/Ubiquitin-conjugating enzyme E2 variant 1 (Homo sapiens, UniProt P61088+Q13404); assay: (§1) Inhibition of human Ubc13-Uev1A interaction expressed in Escherichia BL21 after 15 mins by ELISA
[2] = molecular target: Ubiquitin-conjugating enzyme E2 N/Ubiquitin-conjugating enzyme E2 variant 1 (Homo sapiens) (UniProt Q13404+P61088); assay: as §1
[3] = molecular target: T1, Ubiquitin-conjugating enzyme E2 N (Homo sapiens) (UniProt P61088); assay: Inhibition of Ubc13-[…] interaction by ELISA
T1 sequence (whole entry): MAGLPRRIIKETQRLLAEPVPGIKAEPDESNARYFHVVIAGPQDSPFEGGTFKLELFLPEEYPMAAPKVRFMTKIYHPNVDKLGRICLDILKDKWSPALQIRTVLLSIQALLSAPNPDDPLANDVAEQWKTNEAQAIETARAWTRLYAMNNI

| IC50 [1] | Activity [2] | Activity [3] | Compound |
| --- | --- | --- | --- |
| 8.25 µM |  |  | C[C@@H](N)[C@@H](O)CCCCCCCCCCCCCCCCCCCCCCCC[C@H](O)[C@@H](C)N |
|  | inactive |  | CC(=O)N[C@H](C)[C@H](C/C=C\C/C=C\C/C=C\C/C=C\C/C=C\C/C=C\CCCCCC[C@H](OC(C)=O)[C@@H](C)NC(C)=O)OC(C)=O |
| 106 µM |  | inactive | C[C@@H](N)[C@@H](O)C/C=C\C/C=C\C/C=C\C/C=C\C/C=C\C/C=C\CCCCCC[C@H](O)[C@@H](C)N [LEUCETTAMOL A] |
